According to article PMC8533333, “Melatonin Analogues Potently Inhibit MAO-B and Protect PC12 Cells against Oxidative Stress” (Antioxidants, 2021):

Key:
PC12 cells [1] = conditions: ZnPP 0.2 µM, 6-OHDA 50 µM 24 h
Description: (§1) Control cells were incubated in an equivalent volume of DMSO to a final concentration of 0.3%. Neuroprotective effects of the tested compounds on the toxicity induced by 6-OHDA or rotenone in PC12 cells were evaluated as described previously with slight modifications. In brief, cells were pre-treated with the tested compounds or rasagiline at the indicated concentrations for 4 h. Next, they were exposed to 6-OHDA (50 μM) or rotenone (1 μM) for 24 h. In another set of experiments, the influence of HO-1 inhibitor, ZnPP, on the neuroprotective effects of the tested compounds against 6-OHDA-induced oxidative damage was investigated as previously reported. Briefly, the cells were pre-treated with the tested compounds for 4 h and then incubated with 0.2 µM of ZnPP for 30 min. Subsequently, 6-OHDA was added at a final concentration of 50 µM and incubated for 24 h.
(§2) After the desired treatment, cell viability was determined by MTT assay as described previously. Briefly, MTT was added to the cells at the final concentration of 0.5 mg/mL, which was followed by incubation for 3 h at 37 °C. […] The absorbance of the dissolved solution was measured at 550 nm using a microplate reader (SpectraMax M2^e, Molecular Devices, Sunnyvale, CA, USA). The cell viability was presented as the percentage of the absorbance measured in the vehicle-treated control cells.

[2] = biological target: T1, Human recombinant MAO-B (hMAO-B) (Homo sapiens, UniProt P27338); experiment: MAO-B enzyme assay (Amplex Red, resorufin fluorescence); type: biochemical; conditions: for Selectivity Index (SI): IC50 (MAO-A)/IC50 (MAO-B); for IC50: five doses 10-0.001 µM, triplicate; for % Inhibition of MAO-B at 10 µM / inhibition at 10 µM: single dose 10 µM
T1 construct: purchased Sigma Aldrich; host or cells: insect cells
T1 sequence (P27338 1-520): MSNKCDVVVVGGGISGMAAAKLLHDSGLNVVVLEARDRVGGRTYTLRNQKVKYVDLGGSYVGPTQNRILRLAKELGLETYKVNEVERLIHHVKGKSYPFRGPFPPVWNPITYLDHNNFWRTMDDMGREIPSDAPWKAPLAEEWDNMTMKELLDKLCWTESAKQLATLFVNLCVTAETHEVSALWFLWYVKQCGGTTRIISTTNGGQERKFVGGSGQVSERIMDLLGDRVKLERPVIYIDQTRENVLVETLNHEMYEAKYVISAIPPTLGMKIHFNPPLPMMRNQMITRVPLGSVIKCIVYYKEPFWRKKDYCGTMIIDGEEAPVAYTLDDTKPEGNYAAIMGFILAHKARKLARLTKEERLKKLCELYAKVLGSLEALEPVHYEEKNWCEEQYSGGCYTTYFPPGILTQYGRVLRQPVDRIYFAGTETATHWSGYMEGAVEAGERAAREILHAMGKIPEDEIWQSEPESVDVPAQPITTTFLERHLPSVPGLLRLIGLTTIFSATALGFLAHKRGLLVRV
Description: Biological evaluation of the synthesized melatonin derivatives over both MAO-A and MAO-B was performed as reported previously. A detailed description of the protocol is in the Supplementary Materials.
First, the synthesized melatonin analogues (3a–x) were biologically evaluated over an MAO-B recombinant enzyme. The experiment was performed using Amplex® Red reagent technology. This technology offers quantitative enzyme activity sensitive detection, a wider dynamic range, and fluorescence emission outside the range of compound autofluorescence (if any). The Amplex® Red reagent is a colorless substrate that reacts with H2O2 in a 1:1 stoichiometry to produce a highly fluorescent resorufin; therefore, the induced inhibitory effects of the melatonin analogues over MAO-B were examined via spectrophotometry where the fluorescence rate of resorufin dye formation was measured.
Accordingly, compounds 3n, 3r, and 3u–w were further tested to determine their IC50 values over MAO-B in triplicate from the dose–response inhibition curves using Sigma-Plot software 13.0.
6. Materials and methods of monoamine oxidase (MAO) enzyme assay
The inhibitory activity of MAO-A, B enzyme of the compounds was evaluated based on previously described method. The MAO activity was measured in relative fluorescence units (RFU) evoked by peroxidase-catalyzed oxidation of Amplex Red® to resorufin, in which H2O2 generated by MAO reaction was used as the […]. Human recombinant MAO-A (hMAO-A) and MAO-B (hMAO-B) enzyme expressed in insect cells were obtained from Sigma Aldrich. The 2 μL of test compound in DMSO (final concentration: 1 nM – 10 μM) was treated with 98 μL of hMAO enzyme solution in 50 mM sodium phosphate buffer (pH 7.4, final protein amounts: ~1.25 μg protein/well for MAO-A and ~2.5 μg protein/well for MAO -B) on 96-well black plate and incubated for 15 min at 37 °C. Then 100 μL of reaction working solution which is mixed solution of 400 μM Amplex Red® (Cayman, final concentration: 200 μM), 2 U/mL horseradish peroxidase ( Sigma-Aldrich, final concentration: 1 U/mL) and 2 mM substrate ( p-tyramine for MAO -A, benzylamine for MAO -B, Sigma-Aldrich, final concentration: 1 mM) in 50 mM sodium phosphate buffer (pH 7.4) were added and incubated for 20 min at 37 °C in the dark. The fluorescent intensity was quantified using a microplate reader (SpectraMax®i3, Molecular Device) with an excitation at 545 nm and an emission at 590 nm. The 50% inhibitory concentrations (IC50) of compounds were determined as the mean ± S.E.M. in triplicate from the dose-response inhibition curves using SigmaPlot® 13.0. […]

PC12 cells [3] = experiment: Cytotoxicity in PC12 cells (MTT assay); type: cell-based, rat; conditions: 10 and 30 μM, 24 h
Description: as §1, §2
Cell viabilities were measured by MTT assay.

Structure (SMILES)	effect of ZnPP on protective effects against 6-OHDA-induced toxicity (PC12 cells [1])	Selectivity Index (SI) [2]	IC50 [2] [nM]	% Inhibition of MAO-B at 10 µM [2] [%]	inhibition at 10 µM [2] [%]	cytotoxic effects on PC12 cells (PC12 cells [3])
O=C(Nc1ccc2[nH]ccc2c1)c1cccc(Cl)c1 [3n, 3-Chloro-N-(1H-indol-5-yl)benzamide]	completely abolished	>71	1410	76.79 ± 0.27	> 70	did not show any significant cytotoxic effects
O=C(Nc1ccc2[nH]ccc2c1)c1cccc(Br)c1 [3r, 3-Bromo-N-(1H-indol-5-yl)benzamide]	completely abolished	>109	910	87.00 ± 0.03	> 70	did not show any significant cytotoxic effects
